According to paper PMC10002375, “Synthesis of 3-(2-Alkylthio-4-chloro-5-methylbenzenesulfonyl)-2-(1-phenyl-3-arylprop-2-enylideneamino)guanidine Derivatives with Pro-Apoptotic Activity against Cancer Cells” (International Journal of Molecular Sciences, 2023):

Tested on: MCF-7 cells
Assay: Cell cycle distribution by flow cytometry, MCF-7
Type: cell-based, human
Details: for cells in sub-G1 phase: 72 h
Procedure: The cell cycle distribution was measured by flow cytometry analysis after incubation of MCF-7, HeLa, and HCT-116 with compounds 24 and 31 for 72 h.

Cc1cc(S(=O)(=O)NC(N)=NN=C(C=Cc2ccccc2O)c2ccccc2)c(SCc2ccccc2Cl)cc1Cl [Compound 24, 3-{4-chloro-2-[(2-chlorophenyl)methylthio]-5-methylbenzenesulfonyl}-2-[3-(2-hydroxyphenyl)-1-phenylprop-2-enylideneamino]guanidine]
cells in sub-G1 phase (MCF-7, 10 μM): 5.22% | cells in sub-G1 phase (MCF-7, 25 μM): 7.53% | effect on cell cycle distribution (MCF-7, 72 h, 24 at 10 and 25 μM, 31 at 25 μM): no significant effect on the cell cycle distribution
